Source: patent US20220024963A1, “SALT OF TRIPHOSPHATE PHOSPHORAMIDATES OF NUCLEOTIDES AS ANTICANCER COMPOUNDS” (priority 2019, published 2022)
Counter-ions that a name gives are not always drawn. Like-named read-outs stand apart in the source and are kept apart here.

Columns and labels:
RPMI-8226 = test: In vitro viability assay, CellTiterGlo, 72 h (Example A); assay type: cell-based, Human; settings: RPMI-8226, CellTiterGlo; for EC50: read-out: Ab EC50
Description: (§1) A compound of the invention was assayed for cytotoxic activity in an array of different solid tumours and haematological malignancies using the following assay.
(§2) In vitro viability assay was performed to assess the effects of compounds on cell viability in selected cell lines over 72 h using the CellTiterGlo (CTG, Promega-G7573) assay. The tests were performed in duplicates with treatment of compounds at 9 points, 3.16 folds titration in 96 well plates over ˜72 h. The compound starting concentrations were 198 μM. Cell viability assay using CellTiterGlo in 96-well plate were performed. Compound treatment 72 h, standard growth conditions, duplicates. Compounds were dissolved to 40 mM with thawed […]. Compounds were serially diluted at 3.16 fold in thawed DMSO and warmed to 37° C. before being dissolved in media (2 μL+200 μL). After compounds were dissolved in media, media containing compounds were warmed to 37° C. in incubator and then compounds in media were added to cell plates (50 μL+50 μL) in duplicates. The compounds' final concentrations were from 198 μM to 19.8 nM. All compound solubilities were checked and recorded again, then the plates were transferred to CO2 tissue culture incubator immediately and incubated for 3 days. DMSO final concentration is 0.5%.

CCRF-CEM (ALL) = test: cells; assay type: cell-based; settings: for Survival @ 25 nM / Survival @ 50 nM / Survival @ 125 nM: percentage of cell survival, 72 h; for IC50: 72 h treatment, AlamarBlue
Description: (§3) The efficacy (evaluated by IC50) of clofarabine and 3 different compounds representing different class of clofarabine ProTides (monophosphate, diphosphate and triphosphate molecules) was compared.
(§4) The tested cancer cell lines were acute lymphoblastic leukaemia (ALL), acute myeloid leukaemia (AML) and lymphoma: CCRF-CEM (ALL), HL60 (AML), KG1 (AML), OCI-AML3 (AML) and RL (lymphoma), grown in suspension, in RPMI-1640 media, supplemented with 10% FBS serum and 1% pen strep, except for KG1 cell line for which FBS was 20%.
(§5) For all experiments, cells were plated on a 96 well plate, at a density of 10,000 cells/well in 50 μL media. Dilutions from stock concentration to working solutions were prepared in media; at twice the required concentration and 50 μL was added per well (this achieving the final concentrations described in results below). Control untreated received 50 μL of plain media. After 66 h 10 μL of resazurin was added per well (dilution 1:10). Cells were then incubated with for up to 6 h. After 72 h treatment, cytotoxicity assay (AlamarBlue™−resazurin dye) was performed to determine cell survival. Plates were scanned with a BioHit800 plate reader and data were analysed with Excel and GraphPad Prism.
(§6) A low IC50 indicates greater potency under these laboratory conditions.
(§7) Clofarabine, A, 5a, 5b, 5c, 5d, 5e and 5f were tested against CCRF-CEM and OCI-AML3 cells. Data is represented as the percentage ofcell survival for each ofthe different concentrations to which cells were exposed, rather than calculating a formal IC50 from only two or three datapoints.

OCI-AML3 (AML) = test: cells; assay type: cell-based; settings: for IC50: OCI-AML3, 72 h treatment, AlamarBlue; for Survival @ 50 nM: OCI-AML3, 50 nM; for Survival @ 50 nM / Survival @ 125 nM: percentage of cell survival, 72 h; for Survival @ 125 nM: OCI-AML3, 125 nM
Description: as §3, §4, §5, §6, §7

CCRF-CEM = test: In vitro viability assay, CellTiterGlo, 72 h (Example A); assay type: cell-based; settings: for EC50: read-out: Ab EC50
Description: as §1, §2

K562 = test: as above; assay type: cell-based; settings: for EC50: read-out: Ab EC50
Description: as §1, §2

HepG2 = test: as above; assay type: cell-based; settings: for EC50: read-out: Ab EC50
Description: as §1, §2

RL = test: as above; assay type: cell-based; settings: for EC50: read-out: Ab EC50
Description: as §1, §2

HL-60 = test: as above; assay type: cell-based; settings: HL-60, CellTiterGlo; for EC50: read-out: Ab EC50
Description: as §1, §2

HT29 = test: as above; assay type: cell-based
Description: as §1, §2

MOLT-4 = test: as above; assay type: cell-based; settings: MOLT-4, CellTiterGlo; for EC50: read-out: Ab EC50
Description: as §1, §2

KG-1 = test: as above; assay type: cell-based; settings: KG-1, CellTiterGlo; for EC50: read-out: Ab EC50
Description: as §1, §2

HL60 (AML) = test: Cytotoxicity assay (AlamarBlue - resazurin dye), 72 h (Example B); assay type: cell-based
Description: as §3, §4, §5, §6

KG1 (AML) = test: as above; assay type: cell-based; settings: KG1, 72 h treatment
Description: as §3, §4, §5, §6

RL (lymphoma) = test: as above; assay type: cell-based; settings: 72 h treatment
Description: as §3, §4, §5, §6

MCF-7 = test: In vitro viability assay, CellTiterGlo, 72 h (Example A); assay type: cell-based
Description: as §1, §2

[1] = system: CCRF-CEM and OCI-AML3 cells; assay type: cell-based; settings: both cell lines
Description: as §5, §7

[2] = Homo sapiens, HT-29, read-out: Ab EC50
[3] = Homo sapiens, HL-60, HL60, 72 h treatment

Compound	Top Inhibit (RPMI-8226) [%]	Survival @ 25 nM (CCRF-CEM (ALL)) [%]	Survival @ 50 nM (CCRF-CEM (ALL)) [%]	Survival @ 125 nM (CCRF-CEM (ALL)) [%]	IC50 (CCRF-CEM (ALL); Homo sapiens) [nM]	IC50 (OCI-AML3 (AML); Homo sapiens, OCI-AML-3) [nM]	Survival @ 50 nM (OCI-AML3 (AML)) [%]	Survival @ 125 nM (OCI-AML3 (AML)) [%]	Top Inhibit (CCRF-CEM) [%]	Top Inhibit (K562) [%]	Top Inhibit (HepG2) [%]	Top Inhibit (RL) [%]	Top Inhibit (HL-60) [%]	Top Inhibit (HT29) [%]	Top Inhibit (MOLT-4) [%]	Top Inhibit (KG-1) [%]	IC50 (HL60 (AML); [3]) [nM]	IC50 (KG1 (AML)) [nM]	IC50 (RL (lymphoma)) [nM]	efficacy compared to A and clofarabine [1]	other results
C[C@H](NP(=O)(OC[C@H]1O[C@@H](n2cnc3c(N)nc(Cl)nc32)C(F)[C@H]1O)Oc1ccccc1)C(=O)OCc1ccccc1 (some centres unmarked) [A]	83	96	100	100	275	253	99	96	99	85	99	90	95	86	100	93	91	1760	399	–	EC50 (RPMI-8226; Homo sapiens): 9200 nM; EC50 (CCRF-CEM; Homo sapiens): 80 nM; EC50 (K562; Homo sapiens): 27300 nM; EC50 (HepG2; Homo sapiens): 7630 nM; EC50 (RL; Homo sapiens): 4260 nM; EC50 (HL-60; Homo sapiens): 220 nM; EC50 (HT29; [2]): 1730 nM; EC50 (MOLT-4; Homo sapiens): 250 nM; EC50 (KG-1; Homo sapiens): 440 nM
C[C@H](NP(=O)(Oc1ccccc1)OP(=O)(O)OC[C@H]1O[C@@H](n2cnc3c(N)nc(Cl)nc32)C(F)[C@H]1O)C(=O)OCc1ccccc1 (some centres unmarked) [B]	–	–	–	–	82.5	121	–	–	–	–	–	–	–	–	–	–	71.9	267	153	–	–
C[C@H](NP(=O)(Oc1ccccc1)OP(=O)(O)OP(=O)(O)OC[C@H]1O[C@@H](n2cnc3c(N)nc(Cl)nc32)C(F)[C@H]1O)C(=O)OCc1ccccc1 (stereo partly drawn) [Compound 5a, (2S)-Benzyl 2-(((((((((2R,3R,4S,5R)-5-(6-amino-2-chloro-9H-purin-9-yl)-4-fluoro-3-hydroxytetrahydrofuran-2-yl)methoxy)(hydroxy)phosphoryl)oxy) (hydroxy)phosphoryl)oxy)(phenoxy)phosphoryl)amino)propanoate, di-triethylammonium salt]	94	81	100	13	79	114	86	51	99	33	51	57	97	64	86	92	56.2	349	117	–	EC50 (RPMI-8226; Homo sapiens): 20200 nM; EC50 (CCRF-CEM; Homo sapiens): < 20 nM; EC50 (K562; Homo sapiens): > 198000 nM; EC50 (HepG2; Homo sapiens): 620 nM; EC50 (RL; Homo sapiens): 44600 nM; EC50 (HL-60; Homo sapiens): 330 nM; EC50 (HT29; [2]): 500 nM; EC50 (MOLT-4; Homo sapiens): 40 nM; EC50 (KG-1; Homo sapiens): 310 nM; EC50 (MCF-7; Homo sapiens, MCF7, MCF-7, CellTiterGlo, read-out: Ab EC50): > 198000 nM; Top Inhibit (MCF-7; MCF-7, CellTiterGlo): 40%
C[C@H](NP(=O)(Oc1cccc2ccccc12)OP(=O)(O)OP(=O)(O)OC[C@H]1O[C@@H](n2cnc3c(N)nc(Cl)nc32)[C@@H](F)[C@@H]1O)C(=O)OCc1ccccc1 (stereo partly drawn) [Compound 5b, (2S)-Benzyl 2-(((((((((2R,3R,4S,5R)-5-(6-amino-2-chloro-9H-purin-9-yl)-4-fluoro-3-hydroxytetrahydrofuran-2-yl)methoxy)(hydroxy)phosphoryl)oxy)(hydroxy)phosphoryl)oxy)(naphthalen-1-yloxy)phosphoryl)amino)propanoate di-triethylammonium salt]	–	36	18	13	–	–	64	24	–	–	–	–	–	–	–	–	–	–	–	superior efficacy	–
(2S)-Cyclohexyl 2-(((((((((2R,3R,4S,5R)-5-(6-amino-2-chloro-9H-purin-9-yl)-4-fluoro-3-hydroxytetrahydrofuran-2-yl)methoxy)(hydroxy)phosphoryl)oxy)(hydroxy)phosphoryl)oxy)(phenoxy)phosphoryl)amino)-3-methylbutanoate di-triethylammonium salt [Compound 5e]	–	99	75	90	–	–	100	95	–	–	–	–	–	–	–	–	–	–	–	–	–
(2S)-Isopropyl 2-(((((((((2R,3R,4S,5R)-5-(6-amino-2-chloro-9H-purin-9-yl)-4-fluoro-3-hydroxytetrahydrofuran-2-yl)methoxy)(hydroxy)phosphoryl)oxy)(hydroxy) phosphoryl)oxy)(phenoxy)phosphoryl)amino)propanoate di-triethylammonium salt [Compound 5c]	–	93	94	14	–	–	99	61	–	–	–	–	–	–	–	–	–	–	–	–	–
(2S)-Methyl 2-(((((((((2R,3R,4S,5R)-5-(6-amino-2-chloro-9H-purin-9-yl)-4-fluoro-3-hydroxytetrahydrofuran-2-yl)methoxy)(hydroxy)phosphoryl)oxy)(hydroxy)phosphoryl)oxy)(phenoxy)phosphoryl)amino)-4-(methylthio)butanoate di-triethylammonium salt [Compound 5d]	–	92	16	14	–	–	61	29	–	–	–	–	–	–	–	–	–	–	–	superior efficacy	–
(2S)-Neopentyl 2-(((((((((2R,3R,4S,5R)-5-(6-amino-2-chloro-9H-purin-9-yl)-4-fluoro-3-hydroxytetrahydrofuran-2-yl)methoxy)(hydroxy)phosphoryl)oxy)(hydroxy)phosphoryl)oxy)(phenoxy)phosphoryl)amino)-3-phenylpropanoate di-triethylammonium salt [Compound 5f]	–	85	16	14	–	–	57	32	–	–	–	–	–	–	–	–	–	–	–	superior efficacy	–
Clofarabine	80	36	17	13	–	–	47	19	99	32	57	61	97	68	94	93	–	244	114	–	EC50 (RPMI-8226): 27600 nM; IC50 (CCRF-CEM (ALL)): 40.5 nM; IC50 (OCI-AML3 (AML)): 74 nM; EC50 (CCRF-CEM): < 20 nM; EC50 (K562): > 198000 nM; EC50 (HepG2): 1090 nM; EC50 (RL): 310 nM; EC50 (HL-60): 40 nM; EC50 (HT29; read-out: Ab EC50): 260 nM; EC50 (MOLT-4): < 20 nM; EC50 (KG-1): 70 nM; IC50 (HL60 (AML); HL60, 72 h treatment): 41.5 nM
